Data set [1] is described as follows: Testing for mydriasis (effect on pupil size). Conditions: rat, in vivo, iv; rats; pupil observed 10 minutes. How it is done: The effect of the test substances on the pupil size in rats was investigated as follows:
The substances were administered intravenously to groups of 10 animals in at least three uniformly graduated doses. The pupil size was then observed for 10 minutes to see if there were any changes (mydriasis or miosis). […] The percentage of test animals in which mydriasis occurred was determined. The ED50 values were again determined during the method of LITCHFIELD and WILCOXON (see above).

Data set [2] relates to muscarinic receptors. As to the kind of experiment: Oxotremorine test: protection against oxotremorine-induced lesions in the mucous membrane of the stomach. The class given is in vivo, rat (female albino, Crl:COBS-CD (SD) BR). The note with it: i.v.; rats; oxotremorine 0.62 mg/kg i.v. after neostigmine 1 mg/kg oral; % animals without lesions. How it is done: (§1) Oxotremorine, a specific agonist for muscarinic receptors produces lesions in the mucous membrane of the stomach in rats and increases their secretion of saliva. This test method was chosen so that any selective activity of an antimuscarinic substance on the stomach could be identified.
(§2) Ten female albino rats (of the Crl:COBS-CD (SD) BR strain) with a body weight of from 120 to 150 gm apiece were used in each treatment group and were kept without food for 24 hours before the start of the test but given free access to drinking water.
(§3) To determine, in preliminary tests, the muscarinic effect of oxotremorine on each of the symptoms studied, a dosage/activity curve was drawn up with at least three dosages for each symptom.
(§4) When the antimuscarinic substances were tested, the dosage of oxotremorine which triggered the symptom in question in 90 to 100% of the animals in the preliminary tests was used.
Each antimuscarinic substance was administered intravenously in uniformly graduated doses 15 minutes before the oxotremorine was administered. Control groups were given corresponding quantities of the solvent and suspension agent instead of the test substance. Immediately after the oxotremorine was administered, the animals were placed in a glass case for 15 minutes and observed.
(§5) The ED50 values were determined using the method described by Litchfield and Wilcoxon (J. Pharmacol. Exp. Ther. 96, 99, 1949).
The effects on lesions of the mucous membrane of the stomach were evaluated as follows:
The lesions of the gastric mucous membrane were produced by intravenous injection of 0.62 mg/kg of oxotremorine 30 minutes after the oral administration of 1 mg/kg of neostigmine (a cholinesterase inhibitor). […] The protective effect of the test substances was expressed as the percentage inhibition (percentage of animals without lesions). The ED50 and ED70 values were determined using the method of LITCHFIELD and WILCOXON (see above).

For data set [3], the target named is T1, muscarinic receptors (heart) (Rattus norvegicus, UniProt P10980).
T1 construct: The whole heart was cut up with scissors; All the organs were then homogenized in a Potter apparatus; from tissue; host or cells: whole heart of male Sprague-Dawley rats, homogenate
T1 sequence (P10980 1-466): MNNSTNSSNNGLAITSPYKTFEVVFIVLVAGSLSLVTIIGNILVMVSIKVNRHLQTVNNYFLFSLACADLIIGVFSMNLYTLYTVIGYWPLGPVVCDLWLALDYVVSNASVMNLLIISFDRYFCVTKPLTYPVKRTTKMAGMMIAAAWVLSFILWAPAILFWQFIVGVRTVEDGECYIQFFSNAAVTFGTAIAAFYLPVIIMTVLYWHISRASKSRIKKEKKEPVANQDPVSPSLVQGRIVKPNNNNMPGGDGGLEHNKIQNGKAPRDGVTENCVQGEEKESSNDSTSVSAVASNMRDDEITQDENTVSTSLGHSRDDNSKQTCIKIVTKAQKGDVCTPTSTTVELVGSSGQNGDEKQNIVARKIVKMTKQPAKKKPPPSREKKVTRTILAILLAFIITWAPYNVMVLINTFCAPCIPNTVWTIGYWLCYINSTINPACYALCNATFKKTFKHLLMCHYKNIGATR
As to the kind of experiment: Binding to muscarinic receptors, whole heart (inhibition of specific 3H-NMS binding). On the set-up: species or system rat (Sprague-Dawley). Conditions: 0.3 nM 3H-NMS, 45 min, 30° C., pH 7.4, read-out: Receptor Binding Tests IC50, Heart. As for the experimental part:
(§6) 3. Studies of binding to muscarinic receptors: Determination of the IC50 value
(§7) The organ donors were male Sprague-Dawley rats with a body weight of from about 180 to 220 gm each. After the heart, stomach, and cerebral cortex had been removed, the remainder of the operation was carried out in ice-cold Hepes-HCl buffer (pH 7.4; 100 m molar NaCl, 10 m molar MgCl2). The smooth muscle of the fundus of the stomach was separated from the mucous membrane of the stomach and subjected to preliminary homogenization. The whole heart was cut up with scissors. All the organs were then homogenized in a Potter apparatus.
(§8) For the bonding test, the homogenized organs were diluted as follows:
(§9) The homogenized organ preparations were incubated at a specific concentration of the radioligand and with a series of concentrations of the non-radioactive test substances in an Eppendorf centrifuge tube at 30° C. The duration of incubation was 45 minutes. The substance 0.3 n molar ^3 H-N-methylscopolamine (^3 H-NMS) was used as the radioligand. After incubation had been brought to an end by centrifuging at 14,000 g, the radioactivity in the pellet was determined. […] The proportion of non-specific bonding was defined as the radioactivity which was bonded in the presence of 1μ molar quinuclidinylbenzylate. […] The IC50 values of the non-labelled test substances were determined graphically. […]

Data set [4] addresses muscarinic receptors (cerebral cortex). The experiment in a line: Binding to muscarinic receptors, cerebral cortex (inhibition of specific 3H-NMS binding). Conditions: 0.3 nM 3H-NMS, 45 min, 30° C., pH 7.4, read-out: Receptor Binding Tests IC50, Cortex. On the set-up: species or system rat (Sprague-Dawley). As for the experimental part: as §6, §7, §8, §9
In data set [5] the target is T2, muscarinic receptors (smooth muscle of the fundus of the stomach) (Rattus norvegicus).
T2 construct: The smooth muscle of the fundus of the stomach was separated from the mucous membrane of the stomach; from tissue; host or cells: smooth muscle of the stomach fundus of male Sprague-Dawley rats, homogenate
As to the kind of experiment: Binding to muscarinic receptors, smooth muscle of the fundus of the stomach (inhibition of specific 3H-NMS binding). Conditions: 0.3 nM 3H-NMS, 45 min, 30° C., pH 7.4, read-out: Receptor Binding Tests IC50, Smooth Muscle Fundus of Stomach. Details: species or system rat (Sprague-Dawley). As for the experimental part:
as §6, §7, §8
Smooth muscle of the fundus
as §9

Data set [6] deals with muscarinic receptors. The experiment in a line: Oxotremorine test: inhibition of oxotremorine-induced secretion of saliva. The class given is in vivo, rat (female albino, Crl:COBS-CD (SD) BR). The note with it: i.v., 15 min before oxotremorine 0.083 mg/kg i.v.; rats. As for the experimental part:
as §1, §2, §3, §4
Secretion of saliva 0.083 mg/kg i.v.
Each antimuscarinic substance was administered intravenously in uniformly graduated doses 15 minutes before the oxotremorine was administered. Control groups were given corresponding quantities of the solvent and suspension agent instead of the test substance. […]
as §5

The structures appear in SMILES notation.

As a reminder, the ED50 is the dose that gives a 50% effect, or the effect in half of the subjects. One may read the IC50 as the point on the concentration scale where inhibition reaches its midpoint.

`CN1CC=C(CC(=O)N2c3ccccc3C(=O)Nc3cccnc32)CC1` [A, 5,11-dihydro-11-[(1-methyl-1,2,5,6-tetrahydro-4-pyridinyl)acetyl]-6H-pyrido[2,3-b][1,4]benzodiazepin-6-one] came in with an ED50 at 10 min in data set [1] of 0.074 mg/kg. Moreover, the “Oxotremorine Test, Anti-ulcerative Effect ED50” value in data set [2] amounted to 1.1 µg/kg. In addition, the “Oxotremorine Test, Anti-ulcerative Effect ED70” value in data set [2] is 2 µg/kg. The IC50 in data set [3] amounted to 170 nM; in data set [4] it was 50 nM; in data set [5], 200 nM. For the same molecule, the “Oxotremorine Test, Inhibition of Salivation ED50” value in data set [6] came to 28 µg/kg.
For `CN1[C@@H]2CC[C@H]1C[C@@H](CC(=O)N1c3ccccc3C(=O)Nc3cccnc31)C2` [B, endo-5,11-dihydro-11-[(8-methyl-8-azabicyclo[3.2.1]oct-3-yl)acetyl]-6H-pyrido[2,3-b][1,4]benzodiazepin-6-one], the 50% effect level in data set [1] (ED50 at 10 min) was put at a dose of 0.22 mg/kg. Besides, the “Oxotremorine Test, Anti-ulcerative Effect ED70” value in data set [2] was found to be 37 µg/kg. Moreover, the figures for the IC50 in data set [3], in data set [4] and in data set [5] were 150 nM, 50 nM and 700 nM, respectively. For the same molecule, the “Oxotremorine Test, Inhibition of Salivation ED50” value in data set [6] was 300 µg/kg.

For the origin of these results see patent publication US4424226A, “Pyridobenzodiazepinones, pharmaceutical compositions thereof and method of use thereof” (Dr. Karl Thomae GmbH, priority 1982, dated 1984).
